# From patent US20200345689A1, “METHODS AND CO[…] RRx-001 FOR RADIOPROTECTION” (EpicentRx, Inc., priority 2018, published 2020)
# What was measured:
# [1] = test system: SOD-1; experiment: Western blot of SOD-1 in U937 macrophages; type: cell-based, human; settings: 3 mM RRx-001 for 16 hours, sham and irradiated groups
# Description: Expression of ARE proteins was assayed in hMSC, macrophages, and monocytes following in vitro irradiation of the cells, which were pretreated with RRx-001 or vehicle. Protein expression was assayed by Western blotting and protein quantification.
# hMSC were treated for 16 hours with […] RRx-001 or the vehicle control (0.05% DMSO), irradiated at 10 Gy or sham-irradiated and the protein collected 8 or 24 hours post-sham or irradiation. Human monocytic leukemic THP-1 and U937 cells were differentiated into macrophages with 50 nM Phorbol 12-myristate 13-acetate (PMA) for 24 hours before treatment. Differentiated and non-differentiated cells were treated with […] RRx-001 or 0.05% DMSO (vehicle control) for 16 hours prior to radiation. The cells were irradiated at 5 Gy or sham-irradiated and collected 4-8 hours later for both analysis. For each experiment, duplicates of each sample were run.
# [2] = test system: CD2F1 male mice; experiment: 30-day survival following lethal total body irradiation; type: in vivo
# Description: In this Example, the effects of systemic administration of RRx-001 on survival in response to a lethal dose of radiation was assayed in mice. CD2F1 male mice 9.5-11 weeks old were administered a single dose of RRx-001 by intraperitoneal (IP) injection 24 hours prior to a lethal radiation dose. 24 mice received 10 mg/kg RRx-001 (formulated in 5% DMSO in sterile H2O) and 24 mice received the vehicle control (5% DMSO in sterile H2O only).
# The mice were subjected to total body irradiation (TBI) with 9.35 Gy (LD70/30) at 0.6 Gy/min using High-level Cobalt-60. Unanesthetized mice were placed in well-ventilated Plexiglas restrainers and irradiated bilaterally. Sham-irradiated mice were also placed in identical Plexiglas restrainers and kept in a room shielded from irradiation at the same time. In each experiment, the dose to the abdominal cores of the animals was delivered at a dose rate of approximately 0.6 Gy/min. Dosimetry was performed prior to the irradiation of the animals using the highly accurate alanine/electron spin resonance (ESR) dosimetry system (American Society for Testing and Materials, Standard E 1607) to measure dose rates (to water) in the cores of acrylic mouse phantoms, which were located in the compartments of the exposure rack. A calibration curve based on standard alanine calibration dosimeters provided by the National Institute of Standards and Technology (NIST, Gaithersburg, Md.) was used to measure the doses. The accuracy of the dose rate calibrations has been verified several times using the services of the National Physics Laboratory (UK National Standards Laboratory, London, UK) and the M.D. Anderson Cancer Center (Houston, Tex.). The corrections applied to the measured dose rates in the phantoms were for a small difference in the Co-60 energy between the mass energy-absorption coefficients for soft tissue and water, as well as source decay. The radiation field was uniform within ±1.2%.
# Mice were monitored at least twice a day for 30 days post-irradiation. During the critical period (days 10-20), mice were monitored at least three times a day with no more than 10 hours between observations. Mice displaying any signs of discomfort received food in their cage as a wet mash. Mice displaying overt dyspnea, weight loss, lethargy, or other markers of moribundity and appearing to be in distress were humanely euthanized in a separate room using carbon dioxide gas followed by cervical dislocation after breathing stopped as a confirmatory method of euthanasia. This experiment was repeated for a total of n=24 mice per group.
# Survival curves were estimated using the Kaplan-Meier method and were compared using a two-sided log-rank test at the 0.05 significance level. P-values were considered statistically significant if less than 0.05.
# [3] = test system: bone marrow; experiment: Histopathology of sternal bone marrow (cellularity grade, megakaryocytes) after sublethal TBI or sham irradiation; type: in vivo, mice
# Description: To determine the pathophysiological effects of RRx-001 on hematopoietic protection in mice, CD2F1 male mice were treated with 10 mg/kg RRx-001 or the vehicle control 24 hours prior to a sublethal dose of TBI (7 Gy at 0.6 Gy/min using High-level Cobalt-60) or sham irradiation (day 0) according to the table below.
# CD2F1 male mice (n=3/group) were divided into 4 experimental groups: 1) irradiation+vehicle, 2) irradiation+RRx-001, 3) sham-irradiation+vehicle and 4) sham-irradiation+RRx-001. Either 10 mg/kg RRx-001 or the vehicle control were IP injected 24 hours prior to either irradiation or sham-irradiation (day 0). On days 2, 7, 14, 21, and 28 post-irradiation (day 0) mice were humanely euthanized. Blood, bone marrow, and sternebrae were then collected. This experiment was performed in duplicate for a total of n=6 mice/group/time point.
# Sternebrae from euthanized mice (n=6/group/time point) were collected on days 2, 7, 14, 21 and 28 post-irradiation. Sternebrae were fixed in 10% zinc-buffered formalin for at least 24 hours and up to 7 days. Fixed sternebrae were decalcified for 3 hr in 12-18% sodium EDTA (pH 7.4-7.5) and specimens dehydrated using graded ethanol concentrations and embedded in paraffin. Longitudinal 4μm sections were stained with regular hematoxylin and eosin. Two board-certified pathologist conducted histopathological evaluation of the samples. One of the pathologist scored all the samples blindly. Bone marrow was evaluated in situ within sternebrae and graded (Grade 1: <10%; Grade 2: 11-30%; Grade 3: 31-60%; Grade 4: 61-89%; Grade 5: >90%) for total cellularity. Megakaryocytes were also quantified based on the average per 10 high power fields (HPF) at 400× magnification using a BX43 or BX53 microscope (Olympus, Minneapolis, Minn.). Images were captured with an Olympus DP22 camera and imported into Olympus Cellsens Standard software for review.
# Blood parameters were compared between treatment groups using an analysis of variance (ANOVA). The Wilcoxon test was also used for sensitivity and to potentially address data departures from normality. A longitudinal mixed model repeated measures was also implemented to provide a more complete data analysis of the sham-irradiated treatment groups' difference in overall time profile mean based on the blood parameters. Bone marrow data (megakaryocytes and grade) statistical analysis was carried out using a parametric test consisting of a general linear model analysis of variance (ANOVA with factors consisting of treatment group and pathologist) and the Kruskal-Wallis nonparametric test. The statistical data analysis was carried out using R software (Version 3.4.3, 2016) and the graphs made using GraphPad Prism version 7.03 (GraphPad Software, La Jolla, Calif.).
# To determine the effect of RRx-001 on bone marrow, a histopathological analysis of bone marrow sternebrae was performed and the cellularity, as reported by grade (grade 1: <10%; grade 2: 11-30%; grade 3: 31-60%; grade 4: 61-89%; grade 5: >90% cellularity), and megakaryocyte numbers (averaged per 10 high-powered fields; HPF) were ascertained by two pathologists, one of which scored all the samples blindly (TAS, WEC).
# [4] = 10 mg/kg 24 hours prior to lethal TBI, vs vehicle control
smiles,measurement,setting,value
"O=C(CBr)N1CC([N+](=O)[O-])([N+](=O)[O-])C1 [RRx-001, 2-bromo-1-(3,3-dinitroazetidin-1-yl)ethan-1-one]",SOD-1 expression,[1],no change
same,increase in mean survival time,[2]; [4],7 days
same,increase in survival,[2]; [4],33.4%
same,"survival times, means±standard errors","[2]; 10 mg/kg IP 24 hours prior to 9.35 Gy TBI, 30-day observation, N=24/group",27.2 ± 1.1 days
same,reduction in the 30-day death risk,"[2]; one dose of 10 mg/kg IP 24 hours prior to 9.35 Gy (LD70/30) TBI, vs vehicle control irradiated mice",~33.4%
same,bone marrow cellularity compared to the vehicle control,"[3]; 7 Gy TBI, 10 mg/kg IP 24 hours prior, day 7",slight increase in cellularity
same,hematopoietic recovery as determined by the grade of bone marrow cellularity compared with control,"[3]; 7 Gy TBI, 10 mg/kg IP 24 hours prior, day 14",significantly accelerated hematopoietic recovery
same,number of megakaryocytes,"[3]; 7 Gy TBI, 10 mg/kg IP, between days 7-28",steady increase
same,number of megakaryocytes,"[3]; 7 Gy TBI, 10 mg/kg IP, day 2",reduced
same,number of megakaryocytes,"[3]; 7 Gy TBI, 10 mg/kg IP, day 7",severely depleted
same,bone marrow cellularity grade,"[3]; after irradiation (7 Gy TBI), 10 mg/kg IP 24 hours prior",1 (grade 1: <10%)
same,number of megakaryocytes,"[3]; sham-irradiated, 10 mg/kg IP, day 14, vs vehicle control",significantly higher than the vehicle control
same,overall cellularity of the bone marrow,"[3]; sham-irradiated, 10 mg/kg IP, duration of the study",≥ 90%
same,bone marrow cellularity grade,"[3]; sham-irradiated, 10 mg/kg IP, duration of the study (days 2-28)",5 (grade 5: >90% cellularity)
